How the values were obtained:
southern crabgrass [1] = test: Test Example 5: herbicidal effect by foliage application, plastic box (Table 20, symbol F); type: in vivo, southern crabgrass (Digitaria ciliaris); conditions: foliage application, evaluated three weeks after application
How it was run: (§1)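 Plants were sown into sterilized diluvial soil under about 1.5 cm cover and kept in a greenhouse at 25° C. to 30° C. Fourteen days on, foliage received an even spray of the diluted emulsion. Herbicidal or crop effect was judged three weeks afterwards.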

blackgrass [2] = test: Test Example 5: herbicidal effect by foliage application, plastic box (Table 20, symbol J); type: in vivo, blackgrass (Alopecurus myosuroides); conditions: foliage application, evaluated three weeks after application
How it was run: as §1

false cleavers = test: Test Example 4: herbicidal effect by soil treatment (Table 19, symbol Q); type: in vivo, false cleavers (Galium spurium); conditions: amount of applied herbicide 320 g/ha
How it was run: (§2)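 Pre-emergence style soil spray: seeds under ~1.5 cm sterilized diluvial soil received a uniform coat of emulsion diluted to the predetermined herbicide amount. Greenhouse 25–30° C; readout at week three on previously defined criteria.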

velvetleaf [3] = test: Test Example 4: herbicidal effect by soil treatment (Table 19, symbol M); type: in vivo, velvetleaf (Abutilon theophrasti); conditions: amount of applied herbicide 320 g/ha
How it was run: as §2

barnyard grass [4] = test: Test Example 3: herbicidal effect by foliage application, Wagner pot (Table 18, symbol H); type: in vivo, barnyard grass (Echinochloa crus-galli); conditions: amount of applied herbicide 320 g/ha
How it was run: (§3)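 Plants were sown in alluvial soil held under 0.1–0.5 cm standing water and grown 14 days in a greenhouse at 25–30 °C. An emulsifiable formulation, water-diluted to the set dose, was then sprayed onto the foliage, and effects were scored three weeks later using previously defined criteria.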

barnyard grass [5] = test: Test Example 5: herbicidal effect by foliage application, plastic box (Table 20, symbol H); type: in vivo, barnyard grass (Echinochloa crus-galli); conditions: foliage application, evaluated three weeks after application
How it was run: as §1

wild oat [6] = test: Test Example 5: herbicidal effect by foliage application, plastic box (Table 20, symbol I); type: in vivo, wild oat (Avena fatua); conditions: foliage application, evaluated three weeks after application
How it was run: as §1

green foxtail [7] = test: Test Example 4: herbicidal effect by soil treatment (Table 19, symbol G); type: in vivo, green foxtail (Setaria viridis); conditions: amount of applied herbicide 320 g/ha
How it was run: as §2

chickweed [8] = test: Test Example 5: herbicidal effect by foliage application, plastic box (Table 20, symbol P); type: in vivo, common chickweed (Stellaria media); conditions: foliage application, evaluated three weeks after application
How it was run: as §1

blackgrass [9] = test: Test Example 4: herbicidal effect by soil treatment (Table 19, symbol J); type: in vivo, blackgrass (Alopecurus myosuroides); conditions: amount of applied herbicide 320 g/ha
How it was run: as §2

chickweed [10] = test: Test Example 4: herbicidal effect by soil treatment (Table 19, symbol P); type: in vivo, common chickweed (Stellaria media); conditions: amount of applied herbicide 320 g/ha
How it was run: as §2

velvetleaf [11] = test: Test Example 5: herbicidal effect by foliage application, plastic box (Table 20, symbol M); type: in vivo, velvetleaf (Abutilon theophrasti); conditions: foliage application, evaluated three weeks after application
How it was run: as §1

redroot pigweed [12] = test: Test Example 4: herbicidal effect by soil treatment (Table 19, symbol N); type: in vivo, redroot pigweed (Amaranthus retroflexus); conditions: amount of applied herbicide 320 g/ha
How it was run: as §2

windgrass [13] = test: Test Example 4: herbicidal effect by soil treatment (Table 19, symbol L); type: in vivo, windgrass (Apera spica-venti); conditions: amount of applied herbicide 320 g/ha
How it was run: as §2

persian speedwell [14] = test: Test Example 5: herbicidal effect by foliage application, plastic box (Table 20, symbol R); type: in vivo, Persian speedwell (Veronica persica); conditions: foliage application, evaluated three weeks after application
How it was run: as §1

windgrass [15] = test: Test Example 5: herbicidal effect by foliage application, plastic box (Table 20, symbol L); type: in vivo, windgrass (Apera spica-venti); conditions: foliage application, evaluated three weeks after application
How it was run: as §1

lambsquarters [16] = test: Test Example 4: herbicidal effect by soil treatment (Table 19, symbol O); type: in vivo, lambsquarters (Chenopodium album); conditions: amount of applied herbicide 320 g/ha
How it was run: as §2

lambsquarters [17] = test: Test Example 5: herbicidal effect by foliage application, plastic box (Table 20, symbol O); type: in vivo, lambsquarters (Chenopodium album); conditions: foliage application, evaluated three weeks after application
How it was run: as §1

Italian ryegrass [18] = test: Test Example 5: herbicidal effect by foliage application, plastic box (Table 20, symbol K); type: in vivo, Italian ryegrass (Lolium multiflorum); conditions: foliage application, evaluated three weeks after application
How it was run: as §1

persian speedwell [19] = test: Test Example 4: herbicidal effect by soil treatment (Table 19, symbol R); type: in vivo, Persian speedwell (Veronica persica); conditions: amount of applied herbicide 320 g/ha
How it was run: as §2

Italian ryegrass [20] = test: Test Example 4: herbicidal effect by soil treatment (Table 19, symbol K); type: in vivo, Italian ryegrass (Lolium multiflorum); conditions: amount of applied herbicide 320 g/ha
How it was run: as §2

wild oat [21] = test: Test Example 4: herbicidal effect by soil treatment (Table 19, symbol I); type: in vivo, wild oat (Avena fatua); conditions: amount of applied herbicide 320 g/ha
How it was run: as §2

green foxtail [22] = test: Test Example 5: herbicidal effect by foliage application, plastic box (Table 20, symbol G); type: in vivo, green foxtail (Setaria viridis); conditions: foliage application, evaluated three weeks after application
How it was run: as §1

redroot pigweed [23] = test: Test Example 5: herbicidal effect by foliage application, plastic box (Table 20, symbol N); type: in vivo, redroot pigweed (Amaranthus retroflexus); conditions: foliage application, evaluated three weeks after application
How it was run: as §1

southern crabgrass [24] = test: Test Example 4: herbicidal effect by soil treatment (Table 19, symbol F); type: in vivo, southern crabgrass (Digitaria ciliaris); conditions: amount of applied herbicide 320 g/ha
How it was run: as §2

rice flat sedge = test: Test Example 3: herbicidal effect by foliage application, Wagner pot (Table 18, symbol E); type: in vivo, rice flat sedge (Cyperus iria); conditions: amount of applied herbicide 320 g/ha
How it was run: as §3

Chinese sprangletop = test: Test Example 3: herbicidal effect by foliage application, Wagner pot (Table 18, symbol D); type: in vivo, chinese sprangletop (Leptochloa chinensis); conditions: amount of applied herbicide 320 g/ha
How it was run: as §3

barnyard grass [25] = test: Test Example 4: herbicidal effect by soil treatment (Table 19, symbol H); type: in vivo, barnyard grass (Echinochloa crus-galli); conditions: amount of applied herbicide 320 g/ha
How it was run: as §2

COc1cc(F)ccc1-c1sc2ccc(C(C)=NOC(C)C)cc2c1-c1c(O)c(C)nn(C)c1=O [2-195]
herbicidal effect on F: southern crabgrass (criteria 0-5) (southern crabgrass [1]; 320 g/ha): 2 (Herbicidal rate of 20% or more and less than 40%) | herbicidal effect on J: blackgrass (criteria 0-5) (blackgrass [2]; 320 g/ha): 4 (Herbicidal rate of 70% or more and less than 90%) | Q: false cleavers, herbicidal effect rating (false cleavers): 0 (Herbicidal rate of 5% or less (almost no effect)) | M: velvetleaf, herbicidal effect rating (velvetleaf [3]): 0 (Herbicidal rate of 5% or less (almost no effect)) | herbicidal effect on H: barnyard grass (barnyard grass [4]): 3 (Herbicidal rate of 40% or more and less than 70%) | herbicidal effect on H: barnyard grass (criteria 0-5) (barnyard grass [5]; 320 g/ha): 2 (Herbicidal rate of 20% or more and less than 40%) | herbicidal effect on I: wild oat (criteria 0-5) (wild oat [6]; 320 g/ha): 0 (Herbicidal rate of 5% or less (almost no effect)) | G: green foxtail, herbicidal effect rating (green foxtail [7]): 0 (Herbicidal rate of 5% or less (almost no effect)) | herbicidal effect on P: chickweed (criteria 0-5) (chickweed [8]; 320 g/ha): 5 (Herbicidal rate of 90% or more (almost completely withered)) | J: blackgrass, herbicidal effect rating (blackgrass [9]): 0 (Herbicidal rate of 5% or less (almost no effect)) | P: chickweed, herbicidal effect rating (chickweed [10]): 0 (Herbicidal rate of 5% or less (almost no effect)) | herbicidal effect on M: velvetleaf (criteria 0-5) (velvetleaf [11]; 320 g/ha): 2 (Herbicidal rate of 20% or more and less than 40%) | N: redroot pigweed, herbicidal effect rating (redroot pigweed [12]): 3 (Herbicidal rate of 40% or more and less than 70%) | L: windgrass, herbicidal effect rating (windgrass [13]): 0 (Herbicidal rate of 5% or less (almost no effect)) | herbicidal effect on R: persian speedwell (criteria 0-5) (persian speedwell [14]; 320 g/ha): 5 (Herbicidal rate of 90% or more (almost completely withered)) | herbicidal effect on L: windgrass (criteria 0-5) (windgrass [15]; 320 g/ha): 0 (Herbicidal rate of 5% or less (almost no effect)) | O: lambsquarters, herbicidal effect rating (lambsquarters [16]): 3 (Herbicidal rate of 40% or more and less than 70%) | herbicidal effect on O: lambsquarters (criteria 0-5) (lambsquarters [17]; 320 g/ha): 4 (Herbicidal rate of 70% or more and less than 90%) | herbicidal effect on K: Italian ryegrass (criteria 0-5) (Italian ryegrass [18]; 320 g/ha): 0 (Herbicidal rate of 5% or less (almost no effect)) | R: persian speedwell, herbicidal effect rating (persian speedwell [19]): 4 (Herbicidal rate of 70% or more and less than 90%) | K: Italian ryegrass, herbicidal effect rating (Italian ryegrass [20]): 0 (Herbicidal rate of 5% or less (almost no effect)) | I: wild oat, herbicidal effect rating (wild oat [21]): 0 (Herbicidal rate of 5% or less (almost no effect)) | herbicidal effect on G: green foxtail (criteria 0-5) (green foxtail [22]; 320 g/ha): 0 (Herbicidal rate of 5% or less (almost no effect)) | herbicidal effect on N: redroot pigweed (criteria 0-5) (redroot pigweed [23]; 320 g/ha): 3 (Herbicidal rate of 40% or more and less than 70%) | F: southern crabgrass, herbicidal effect rating (southern crabgrass [24]): 0 (Herbicidal rate of 5% or less (almost no effect)) | herbicidal effect on E: rice flat sedge (rice flat sedge): 0 (Herbicidal rate of 5% or less (almost no effect)) | herbicidal effect on D: Chinese sprangletop (Chinese sprangletop): 0 (Herbicidal rate of 5% or less (almost no effect)) | H: barnyard grass, herbicidal effect rating (barnyard grass [25]): 0 (Herbicidal rate of 5% or less (almost no effect))

Cc1nn(C)c(=O)c(-c2c(-c3ccc(OC(F)F)cc3)sc3ccc(F)cc23)c1OC(=O)N1CCOCC1 [2-290]
F: southern crabgrass, herbicidal effect (criteria 0-5) (southern crabgrass [1]; AAH 320 g/ha): 0 (Herbicidal rate of 5% or less (almost no effect)) | J: blackgrass, herbicidal effect (criteria 0-5) (blackgrass [2]; AAH 320 g/ha): 0 (Herbicidal rate of 5% or less (almost no effect)) | herbicidal effect on Q: false cleavers (false cleavers): 0 (Herbicidal rate of 5% or less (almost no effect)) | herbicidal effect on M: velvetleaf (velvetleaf [3]): 0 (Herbicidal rate of 5% or less (almost no effect)) | herbicidal effect on H: barnyard grass (barnyard grass [4]): 4 (Herbicidal rate of 70% or more and less than 90%) | H: barnyard grass, herbicidal effect (criteria 0-5) (barnyard grass [5]; AAH 320 g/ha): 2 (Herbicidal rate of 20% or more and less than 40%) | I: wild oat, herbicidal effect (criteria 0-5) (wild oat [6]; AAH 320 g/ha): 0 (Herbicidal rate of 5% or less (almost no effect)) | herbicidal effect on G: green foxtail (green foxtail [7]): 0 (Herbicidal rate of 5% or less (almost no effect)) | P: chickweed, herbicidal effect (criteria 0-5) (chickweed [8]; AAH 320 g/ha): 5 (Herbicidal rate of 90% or more (almost completely withered)) | herbicidal effect on J: blackgrass (blackgrass [9]): 0 (Herbicidal rate of 5% or less (almost no effect)) | herbicidal effect on P: chickweed (chickweed [10]): 0 (Herbicidal rate of 5% or less (almost no effect)) | M: velvetleaf, herbicidal effect (criteria 0-5) (velvetleaf [11]; AAH 320 g/ha): 4 (Herbicidal rate of 70% or more and less than 90%) | herbicidal effect on N: redroot pigweed (redroot pigweed [12]): 1 (Herbicidal rate of 5% or more and less than 20%) | herbicidal effect on L: windgrass (windgrass [13]): 0 (Herbicidal rate of 5% or less (almost no effect)) | R: persian speedwell, herbicidal effect (criteria 0-5) (persian speedwell [14]; AAH 320 g/ha): 5 (Herbicidal rate of 90% or more (almost completely withered)) | L: windgrass, herbicidal effect (criteria 0-5) (windgrass [15]; AAH 320 g/ha): 0 (Herbicidal rate of 5% or less (almost no effect)) | herbicidal effect on O: lambsquarters (lambsquarters [16]): 3 (Herbicidal rate of 40% or more and less than 70%) | O: lambsquarters, herbicidal effect (criteria 0-5) (lambsquarters [17]; AAH 320 g/ha): 5 (Herbicidal rate of 90% or more (almost completely withered)) | K: Italian ryegrass, herbicidal effect (criteria 0-5) (Italian ryegrass [18]; AAH 320 g/ha): 0 (Herbicidal rate of 5% or less (almost no effect)) | herbicidal effect on R: persian speedwell (persian speedwell [19]): 3 (Herbicidal rate of 40% or more and less than 70%) | herbicidal effect on K: Italian ryegrass (Italian ryegrass [20]): 0 (Herbicidal rate of 5% or less (almost no effect)) | herbicidal effect on I: wild oat (wild oat [21]): 0 (Herbicidal rate of 5% or less (almost no effect)) | G: green foxtail, herbicidal effect (criteria 0-5) (green foxtail [22]; AAH 320 g/ha): 2 (Herbicidal rate of 20% or more and less than 40%) | N: redroot pigweed, herbicidal effect (criteria 0-5) (redroot pigweed [23]; AAH 320 g/ha): 5 (Herbicidal rate of 90% or more (almost completely withered)) | herbicidal effect on F: southern crabgrass (southern crabgrass [24]): 0 (Herbicidal rate of 5% or less (almost no effect)) | herbicidal effect on E: rice flat sedge (rice flat sedge): 3 (Herbicidal rate of 40% or more and less than 70%) | herbicidal effect on D: Chinese sprangletop (Chinese sprangletop): 4 (Herbicidal rate of 70% or more and less than 90%) | herbicidal effect on H: barnyard grass (barnyard grass [25]): 0 (Herbicidal rate of 5% or less (almost no effect))

— patent US20230085307A1, “PYRIDAZINONE COMPOUND AND HERBICIDE” (NISSAN CHEMICAL CORPORATION, priority 2019, published 2023)
